Results published in article PMC10141604, “Small-Molecule Inhibition of Androgen Receptor Dimerization as a Strategy against Prostate Cancer” (ACS Central Science, 2023).

Assays:
[1] = test system: secreted PSA from LNCaP cells; experiment: Secreted prostate-specific antigen (PSA) assay; type: cell-based; conditions: for IC50: Homo sapiens, read-out: IC50, PSA levels secreted in the cellular media
Method: Secreted Prostate-Specific Antigen (PSA) Assay
After the AR transcriptional activity assay was completed, 300 μl of the media
supernatant including the secreted PSA was measured using […]® 2000 XPi
Immunoassay System (Siemens Ltd., Erlangen, Germany). […]

[2] = test system: human gastric epithelial cell (GES-1); experiment: MTT cell viability assay, GES-1; type: cell-based; conditions: 72 h
Method: (§1) 3-(4,5-dimethythiazol-2-yl)-2,5-diphenyl-2-H-tetrazolium bromide (MTT) colorimetric assay was employed to investigate cell viability. Cells were seeded into 96-well plates with 2-5× 10^3 cells per well (5× 10^3 cells/well for LNCaP, 22RV1, NIH-3T3, GES-1, Chang, […]
(§2) NCI-H1299, U2OS, U87) for 1 day incubation at 37 °C. Then, the cells were treated with various concentrations of compounds (22.86 nM - 50 μM) and incubated for 72 h. Then, 10 μl MTT (5 mg/ml) was added into each well and incubated for 4 h. Afterwards, 100 μl of triplex 10% SDS-0.1% HCl-phosophate-buffered saline (PBS) solutions was added into each well and incubated for overnight. The absorbance at 570 nm was measured (Eon, Bioteck, Winooski, VT). […]

PR = target: T1, PR (Homo sapiens, UniProt P06401); experiment: Luciferase reporter assay for PR (PC3 cells); type: cell-based; conditions: 10 μM, 10 nM progesterone
T1 construct: host or cells: PC3
T1 sequence (P06401 1-933): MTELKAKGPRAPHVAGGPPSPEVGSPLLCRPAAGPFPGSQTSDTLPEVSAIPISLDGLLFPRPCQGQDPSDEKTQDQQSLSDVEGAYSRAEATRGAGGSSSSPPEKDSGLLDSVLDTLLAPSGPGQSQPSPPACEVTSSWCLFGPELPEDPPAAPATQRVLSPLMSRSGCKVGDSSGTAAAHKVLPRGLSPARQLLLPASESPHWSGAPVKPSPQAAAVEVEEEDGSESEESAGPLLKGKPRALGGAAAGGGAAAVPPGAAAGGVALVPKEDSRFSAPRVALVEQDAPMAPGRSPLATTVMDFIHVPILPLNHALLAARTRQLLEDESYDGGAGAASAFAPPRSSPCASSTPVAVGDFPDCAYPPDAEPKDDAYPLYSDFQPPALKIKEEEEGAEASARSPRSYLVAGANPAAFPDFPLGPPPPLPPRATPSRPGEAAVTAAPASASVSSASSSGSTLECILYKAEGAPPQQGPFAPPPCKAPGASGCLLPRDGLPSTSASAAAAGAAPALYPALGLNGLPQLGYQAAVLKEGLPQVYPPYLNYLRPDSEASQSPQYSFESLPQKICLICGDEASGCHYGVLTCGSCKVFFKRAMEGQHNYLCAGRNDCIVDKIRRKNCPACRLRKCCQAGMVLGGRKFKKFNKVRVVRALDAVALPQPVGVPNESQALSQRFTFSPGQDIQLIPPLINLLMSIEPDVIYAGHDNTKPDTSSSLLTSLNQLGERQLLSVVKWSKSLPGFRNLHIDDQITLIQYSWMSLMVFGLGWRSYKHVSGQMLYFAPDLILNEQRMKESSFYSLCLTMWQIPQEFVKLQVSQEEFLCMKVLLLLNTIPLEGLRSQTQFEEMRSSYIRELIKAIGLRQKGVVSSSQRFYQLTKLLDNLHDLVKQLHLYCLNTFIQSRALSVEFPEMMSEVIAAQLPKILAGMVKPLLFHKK
Method: Luciferase Reporter Assays for PR, GR, and MR
PC3, HeLa, and HEK293T cells were cultured using 5% CSS RPMI-1640, 5% CSS RPMI-1640 and 10% FBS DMEM media in 96-well plates for 24 h, respectively. For PR induction, PC3 (1 × 10^4 cells/well) were transfected with 50 ng pcDNA3-PRB (#89130, Addgene), 24 ng pGL4.36[luc2P MMTV Hygro] (Promega) and 5 ng Renilla using HG-TransGeneTM transfection reagent (#TG-10012, Genomeditech) for 4 h. For GR induction, Hela (1 × 10^4 cells/well) were transfected with 71 ng pCMV -GR11 (#89105, Addgene), 24 ng pGL4.36[luc2P MMTV Hygro] (Promega) and 5 ng Renilla using lip3000 transfection reagent (#L3000075, Thermofisher) for 24 h. For MR induction, HEK293T (1 × 10^4 cells/well) were transfected with 71 ng pCMV-MR gifted by Liu et al. 28, 24 ng of pGL4.36[luc2P MMTV Hygro] (Promega) and 5 ng Renilla using lip3000 transfec tion reagent for 24 h. For the antagonistic models, 10 nM /well progesterone for PC3 cells , 1 nM/well dexamethasone for HeLa, and 5 nM/well aldosterone for HEK293T cells were added to stimulate the cells. Meanwhile, each cell line was treated with a series concentration of compounds (0.4, 2, and 10 μM). For the agonistic models, the cells were directly treated with the compounds without any hormones. Endogenous hormones progesterone, dexamethasone, and aldosterone were considered as agonists for PR, GR, and MR, respectively. The luciferase activities were assessed using the Dual-Glo Luciferase system (#E1910, Promega). […]

[3] = test system: U2OS, MCF-7, HepG2, HL60, H1299, A549, SW480, U87, Hela cell lines; experiment: MTT cell viability assay, various human cancer cell lines; type: cell-based; conditions: concentration as high as 50 μM; Enz except U2OS, M17-B15 except A549
Method: as §1, §2

[4] = test system: human liver cells (Chang); experiment: MTT cell viability assay, Chang; type: cell-based; conditions: 72 h
Method: as §1, §2

NIH-3T3 = experiment: MTT cell viability assay, NIH-3T3; type: cell-based, murine; conditions: 72 h
Method: as §1, §2

[5] = test system: PSA, CDC20, CENPF, MKI67 mRNA in LNCaP cells; experiment: Quantitative PCR in LNCaP cells; type: cell-based; conditions: for mRNA expression of PSA: LNCaP, 0.1, 1 μM, 5 nM DHT; for mRNA expressions of CDC20, CENPF and MKI67: LNCaP, compared with DHT
Method: Quantitative PCR (qPCR) for PSA, CDC20, CENPF, MKI67
LNCaP cells were cultured in medium containing 5% CSS in six -well plates and treated […]
where 5 nM DHT and DMSO were separately used in parallel as controls. After 48 h incubation, EZ-10 DNAaway RNA Mini -Preps Kit (Sangon Biotech) and Hifair® Ⅲ 1st Strand cDNA Synthesis SuperMix for qPCR (YEASEN) were employed for mRNA extraction and cDNA preparation, respectively. Then, the PCR SYBR Green Master Mix (YEASEN) was employed to amplify cDNA using the prime pairs in Table S5 . […]

| IC50 [1] | PR antagonistic activity (PR) | Structure (SMILES) | inhibition of the secretion of PSA [1] | cytotoxicity against GES-1 [2] | cell viability inhibition of various human cancer cell lines [3] | cytotoxicity against Chang [4] | cytotoxicity against NIH-3T3 (NIH-3T3) | mRNA expression of PSA [5] | mRNA expressions of CDC20, CENPF and MKI67 [5] |
| --- | --- | --- | --- | --- | --- | --- | --- | --- | --- |
| 350 nM | moderate | CC(=O)Cc1nsc(NC(=O)c2cc(-c3cccc(C(F)(F)F)c3)oc2C)n1 [Compound M17-B15] | dose-dependent | negligible cytotoxicity | mild to moderate inhibitory effects | negligible cytotoxicity | negligible cytotoxicity | inhibited | significantly reduces |
| 180 nM | moderate | CNC(=O)c1ccc(N2C(=S)N(c3ccc(C#N)c(C(F)(F)F)c3)C(=O)C2(C)C)cc1F [Enz, enzalutamide, reference compound] |  | negligible cytotoxicity | mild to moderate inhibitory effects | negligible cytotoxicity | negligible cytotoxicity | inhibited | significantly reduces |
